Several values for one entry are separate records, joined by “and”; a condition that tells them apart may be missing. Equal values may be shown once. Entries after “also recorded” stand apart in the source; their conditions may differ. Read-outs that look alike come from different tables or passages of the source.
How the values were obtained:
[1] = Stability under tissue culture conditions (HPLC of supernatants); conditions: HPLC analysis of supernatants
[2] = system: B16 melanoma cells; assay: Bystander killing, mixed wild type and PNP-transduced B16 cells; assay type: cell-based, murine; conditions: 20 μg/ml
[3] = target: T1, E. coli PNP (Escherichia coli, UniProt P0ABP8); assay type: biochemical
T1 sequence (P0ABP8 2-239): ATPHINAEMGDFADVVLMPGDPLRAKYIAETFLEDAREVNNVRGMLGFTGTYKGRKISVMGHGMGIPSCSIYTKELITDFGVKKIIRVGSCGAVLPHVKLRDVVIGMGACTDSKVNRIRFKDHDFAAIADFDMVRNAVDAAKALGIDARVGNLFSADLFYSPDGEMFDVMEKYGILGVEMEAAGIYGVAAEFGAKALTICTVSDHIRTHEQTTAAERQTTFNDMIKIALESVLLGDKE

[4] = system: 16/C breast cancer cells; assay: Bystander killing, mixed wild type and PNP-transduced 16/C cells; assay type: cell-based, murine; conditions: 20 μg/ml
[5] = system: D54 parental tumor cells (D54-wt); assay: Wild-type D54 glioma tumors in nude mice; assay type: in vivo
Protocol: Female athymic nude mice (nu/nu) were implanted sc with 2×10^7 cells of either D54 parental tumor cells (D54-wt) or D54 tumor cells that had been transduced with the E. coli PNP (D54-PNP). After the tumors had grown to approximately 150 mg, they were treated ip with either vehicle or 67 mg/kg of MeP-dR (IP) once a day for 3 days (days 6, 7 and 8 after implantation). The tumor sizes were measured twice a week after treatment.
A confirmation experiment was set up exactly as described above, except that animals were treated with two doses of MeP-dR (45 and 67 mg/kg) (FIGS. 10 and 11). The results of this experiment were similar (Table V). There were 8 of 10 complete regressions in mice bearing the D54-PNP tumors that were treated with 67 mg/kg of MeP-dR. In 4 mice the tumors subsequently returned and grew. There were still 4 of 10 tumor-free survivors 60 days after the treatment had stopped. […] There were 2 of 10 complete regressions and 3 partial responses. […] The delay in the time required to double twice due to treatment with MeP-dR was 5 to 6 days in the non-transduced tumors and greater than 24 days in transduced tumors. In this experiment, the growth rate of the D54-PNP tumors was considerably slower than it was in the first experiment. There was no change in the growth rate of the D54-wt tumors. The reason for the slow growth rate of the D54-PNP tumors in this experiment is not known. […] (In other words, if a tumor was too small to measure, it was not included in the average size). This means that the overall tumor regressions in the D54 PNP group are actually much more pronounced than they appear in FIGS. 8-11.

[6] = target: T1, E. coli PNP
[7] = system: Mel-1 melanoma cells; assay: Killing of Mel-1 cells transfected with Tyr-PNP or SV-PNP; assay type: cell-based, human; conditions: 30 μg/ml, day 6
Description: To eliminate possible toxicity associated with the non-hydrolyzable cationic lipid component of the LipofectinJ, an alternative liposome transfection vehicle was used in the killing experiments. A liposome vehicle consisting of a 1:1 (weight/weight) mixture of the cationic lipid DOTAP (1,2-dioleoyloxy-3-(trimethylammonium)-propane) and the neutral lipid DOPE (dioleoyl-phosphatidylethanolamine) (Avanti Polar Lipids) display transfection properties similar to LipofectinJ, but with less toxicity (data not shown). DOTAP/DOPE liposomes were prepared by mixing 0.5 mg of DOTAP and 0.5 mg of DOPE and evaporating the chloroform solvent. Following the addition of 500 μl of cyclohexane, the mixture was placed on dry ice and lyophilized. One ml of sterile water was added to the powdered lipids and the solution was vortexed every 5 minutes for 30 minutes. T-84 or Mel-1 cells were seeded at 30% confluency in 24-well plates and allowed to grow overnight. […]
In cells that received the PNP or control plasmids, the media was changed two days after transfection and MeP-dR (6-methylpurine-deoxyriboside) added to the appropriate wells to a final concentration of 30 μg/ml. […] Two days later (day 6), the cells were washed once with PBS, resuspended, and counted in a 20% solution of trypan blue reagent (Trypan Blue Stain 0.4%, Gibco-BRL, Gaithersburg, Md.) using a hemacytometer. […]

Cc1ncnc2c1ncn2[C@H]1C[C@H](O)[C@@H](CO)O1 [MeP-dR, 9-(β-D-2-deoxyerythropentofuranosyl)-6-methylpurine]
Stability under tissue culture conditions [1]: stable
Toxicity to untransduced B16 cells [2]: not toxic
Cell proliferation when as few as 2% of cells express E. coli PNP ([2]; mixed culture): completely eliminated cell proliferation; also recorded: Complete abrogation of cellular proliferation
Share of cells expressing PNP required for total population cell killing ([2]; LDH release assay): 10%
MeP-dR converted to MeP ([3]; extracts of E. coli PNP transfected T-84 cells, 100 μM, 24 hours, 25° C.): Approximately 24%
MeP-dR converted to MeP ([3]; extracts of LacZ transfected T-84 cells): no conversion occurred
Toxicity to untransduced 16/C cells [4]: not toxic
Cell proliferation when as few as 2% of cells express E. coli PNP ([4]; mixed culture): completely eliminated cell proliferation; also recorded: Complete abrogation of cellular proliferation
Share of cells expressing PNP required for total population cell killing ([4]; LDH release assay): 1%
Effect on wild-type D54 tumors, in words ([5]; 45 or 67 mg/kg): little effect; also recorded: no partial of complete remissions; also recorded: did not affect parental D54 tumor cell growth
Days Delay (T-C) ([5]; Table IV, 67 mg/kg): 7 days
Doubling time ([5]; Table IV, 67 mg/kg): 21
Nonspecific Deaths/Total ([5]; Table IV, 67 mg/kg): 1/6
Regressions Partial ([5]; Table IV, 67 mg/kg): 0/6
Tumor-free Survival ([5]; Table IV, 67 mg/kg): 0/6
Regressions Complete ([5]; Table IV, 67 mg/kg IP once a day for three days): 0/6
Days Delay (T-C) ([5]; Table V, 45 mg/kg): 5 days
Doubling time ([5]; Table V, 45 mg/kg): 17
Nonspecific Deaths/Total ([5]; Table V, 45 mg/kg): 0/10
Regressions Partial ([5]; Table V, 45 mg/kg): 0/10
Tumor-free Survival ([5]; Table V, 45 mg/kg): 0/10
Regressions Complete ([5]; Table V, 45 mg/kg IP once a day for three days): 0/10
Days Delay (T-C) ([5]; Table V, 67 mg/kg): 6 days
Doubling time ([5]; Table V, 67 mg/kg): 18
Nonspecific Deaths/Total ([5]; Table V, 67 mg/kg): 0/10
Regressions Partial ([5]; Table V, 67 mg/kg): 0/10
Tumor-free Survival ([5]; Table V, 67 mg/kg): 0/10
Regressions Complete ([5]; Table V, 67 mg/kg IP once a day for three days): 0/10
Km [6]: 68 µM and 107 µM
Killing of Mel-1 cells transfected with SV-PNP [7]: susceptible to killing
Killing of Mel-1 cells transfected with Tyr-PNP [7]: susceptible to killing

Source: US6958318B2, “Recombinant bacterial cells for delivery of PNP to tumor cells” (The UAB Research Foundation, priority 1993, dated 2005)
